Source: US11660313B2, “Compositions and methods for application over skin” (Shiseido Company, Limited, priority 2015, dated 2023)
Values after ≈ are worked out from the molar mass of the structure shown.

Experiment: Solubility of triamcinolone acetonide in receptor fluid
Format: physicochemical
Details: not told, aqueous with cosolvent or surfactant or cyclodextrin; PBS at pH 7.4 with 2 wt % hydroxypropyl-beta-cyclodextrin
Protocol: Receptor fluid preparation: Based on the results of solubility studies, a receptor fluid of phosphate buffered saline (PBS) at pH 7.4 with 2 wt % hydroxypropyl-beta-cyclodextrin (HPBCD) was chosen. […] The preparation and degassing of the receptor fluid was prepared at an appropriate pH and degassing was carried out by filtering the receptor fluid through a ZapCap CR 0.2 μm membrane while pulling vacuum.

solubility: ~282 µg/mL (≈ 649 µM)
Structure (SMILES): CC1(C)O[C@@H]2C[C@H]3[C@@H]4CCC5=CC(=O)C=C[C@]5(C)[C@@]4(F)[C@@H](O)C[C@]3(C)[C@]2(C(=O)CO)O1 [triamcinolone acetonide]
